In BindingDB's records for patent US12528814 (Nurix Therapeutics, 2026):

Biological target: T1, Interleukin-1 receptor-associated kinase 4 (Homo sapiens, UniProt Q9NWZ3)
T1 sequence (Q9NWZ3 whole entry): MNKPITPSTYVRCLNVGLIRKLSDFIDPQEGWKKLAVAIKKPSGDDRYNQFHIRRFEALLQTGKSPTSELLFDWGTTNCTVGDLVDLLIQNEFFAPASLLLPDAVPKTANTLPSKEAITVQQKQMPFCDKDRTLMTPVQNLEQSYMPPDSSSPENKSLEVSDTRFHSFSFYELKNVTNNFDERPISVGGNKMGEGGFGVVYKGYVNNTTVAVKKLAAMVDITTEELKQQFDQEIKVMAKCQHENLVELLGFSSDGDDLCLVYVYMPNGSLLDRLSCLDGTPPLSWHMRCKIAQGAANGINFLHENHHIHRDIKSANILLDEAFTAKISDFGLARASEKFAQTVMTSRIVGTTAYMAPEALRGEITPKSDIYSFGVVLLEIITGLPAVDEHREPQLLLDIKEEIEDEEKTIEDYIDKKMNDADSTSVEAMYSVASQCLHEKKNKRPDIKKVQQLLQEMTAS
Assay: IRAK4 Biochemical HTRF Kinase Assay
Experimental: The binding capacities of certain bifunctional compounds of Formula (I) were determined using the CisBio HTRF KinEASE STK S1 Kit (#62ST1PEB, contains 5× Kinase buffer, 1× Detection Buffer, anti-phospho-serine/threonine-cryptate, Streptavidin-XL665, and STK-S1), which measures the phosphorylation of a biotinylated peptide substrate by IRAK4, according to the manufacturer's protocol. Briefly, test compounds in DMSO were serially diluted into 384 Plus White Proxiplate (PerkinElmer, #6008280) using a Labcyte Echo 550 Liquid Handler, at a concentration of 50× final in 200 nL of 100% DMSO. 7.8 μl of kinase solution, containing 1.28 nM IRAK4 in 1× Kinase Buffer (supplemented with 3 mM MgCl2, 0.01% Triton X-100, and 1 mM DTT) was added to each compound containing well and incubated at ambient temperature for 30 min. 2 μl of a reaction solution containing 5 μM STK-S1, 10 mM ATP, and 10 mM MgCl2 were added to each well to a final volume of 10 μl. Assay controls include wells containing kinase with no compound (DMSO only) and wells containing no kinase and no compound (DMSO only). The reactions were allowed to proceed at ambient temperature for 90 minutes. […] The plates were incubated for 60 minutes at ambient temperature and then read on an Envision Multilabel Reader (PerkinElmer). […]

IC50: 1.6 nM
Compound: CNc1cc(-c2ccc3cc(C#N)cnn23)ncc1-c1nnc(C23CCC(NC(=O)C4CCN(c5cccc6c5C(=O)N(C5CCC(=O)NC5=O)C6=O)CC4)(CC2)CC3)s1 (stereo unspecified) [US12528814, Example 136]
